Results on 1 molecule are retold here after patent US20230285457A1, “NANOPARTICLES FOR CANCER TREATMENT” (Universidad de Guadalajara, priority 2019, published 2023).

This data set in a line: Quantification of the DOX encapsulation percentage in the nanoparticle. The class given is physicochemical. The settings on record: DOX with respect to the mass of PLGA in the nanoparticles; mean ± DE, n = 3. The method, then:
To evaluate the DOX release profile contained in anti-GZMB PLGA/DOX/Ch/ICG NPs, firstly, the quantification of the encapsulation percentage in the nanoparticle was performed by dissolving the PLGA NPs pellet in acetone, quantifying the fluorescence intensity and interpolating fluorescence intensity against DOX standard; this assay was performed in fluorescence plates of 96-well Clear Bottom (Corning®—CLS3904) using excitation and emission at 488 and 560 nm, respectively.

For the molecule `COc1cccc2c1C(=O)c1c(O)c3c(c(O)c1C2=O)C[C@@](O)(C(=O)CO)C[C@@H]3O[C@H]1C[C@H](N)[C@H](O)[C@H](C)O1` [DOX, doxorubicin], the “Encapsulation percentage (w/w)” value is given as 7.32 ± 1.4 percentage (w/w).
